From patent US11130741B2 (Bioimics AB, priority 2016, dated 2021)
pIC50: −log10 of the molar value. In brackets after ≈: the same amount, converted by molar mass. Where a name gives a salt, the structure may show the parent alone. Read-outs that look alike come from different tables or passages of the source.

What was measured:
[1] = tested on: Escherichia coli (ATCC25922); experiment: MIC, broth microdilution (CLSI), Escherichia coli ATCC25922
[2] = tested on: E. coli RNase P RNA, M1 RNA; experiment: Inhibition of bacterial RNase P activity, IC50 determination (cleavage of pATSerUG by M1 RNA); format: biochemical; details: NI = No inhibition
[3] = tested on: Staphylococcus aureus (ATCC25923); experiment: MIC, broth microdilution (CLSI), Staphylococcus aureus ATCC25923
[4] = ATCC25922, read-out: E. coli MIC, Table 15, NI = No inhibition
[5] = ATCC25923, read-out: S. aureus ("Clinical") MIC

SMILES | MIC [1, 4] | pIC50 [2] | MIC [3, 5] | MIC ([1]; ATCC25922, read-out: E. coli MIC) | pIC50 ([2]; trifluoroacetate) | MIC ([3]; ATCC25923, read-out: S. aureus ("Clinical") MIC, Table 15)
CN(C)CCCN1c2ccccc2Sc2cc(-c3cccc4cn[nH]c34)ccc21 [compound 129, 3-(3-(1H-indazol-7-yl)-10H-phenothiazin-10-yl)-N,N-dimethylpropan-1-amine] | > 100 µg/mL | < 4.00 | 6 µg/mL (≈ 15 µM) |  |  | 
CN(C)CCCN1c2ccccc2Sc2cc(-c3ccc4scnc4c3)ccc21 [compound 130, 3-(3-(benzo[d]thiazol-5-yl)-10H-phenothiazin-10-yl)-N,N-dimethylpropan-1-amine] | > 100 µg/mL | 4.24 | 7 µg/mL (≈ 16.8 µM) |  |  | 
O=C(CC1CCC(F)(F)CC1)Nc1cc(C(F)(F)F)cc2c1Nc1ccccc1S2 [compound 132, 2-(4,4-difluorocyclo-hexyl)-N-(3-(trifluoromethyl)-10H-phenothiazin-1-yl)acetamide] | > 100 µg/mL | < 4.00 | 4 µg/mL (≈ 9.04 µM) |  |  | 
Nc1cccc(C(=O)Nc2cc(C(F)(F)F)cc3c2Nc2ccccc2S3)c1 [compound 134, 3-amino-N-(3-(trifluoromethyl)-10H-phenothiazin-1-yl)benzamide] | > 100 µg/mL | < 4.00 | 6 µg/mL (≈ 14.9 µM) |  |  | 
CN(C)CCCN1c2ccccc2Sc2cc(-c3nc4ccccc4[nH]3)ccc21 [compound 137, 3-(3-(1H-benzo[d]imidazol-2-yl)-10H-phenothiazin-10-yl)-N,N-dimethylpropan-1-amine] | > 100 µg/mL | 3.80 | 13 µg/mL (≈ 32.5 µM) |  |  | 
CN(C)CCCN1c2ccccc2Sc2cc(-c3nc4ccccc4s3)ccc21 [compound 143, 3-(3-(Benzo[d]thiazol-2-yl)-10H-phenothiazin-10-yl)-N,N-dimethylpropan-1-amine] | > 100 µg/mL | < 4.00 | 3 µg/mL (≈ 7.18 µM) |  |  | 
COc1ccc2[nH]c(-c3ccc4c(c3)Sc3ccccc3N4CCCN(C)C)cc2c1 [compound 144, 3-(3-(5-methoxy-1H-indol-2-yl)-10H-phenothiazin-10-yl)-N,N-dimethylpropan-1-amine] | > 100 µg/mL | < 4.00 | 3 µg/mL (≈ 6.98 µM) |  |  | 
O=C(Nc1cc(C(F)(F)F)cc2c1Nc1ccccc1S2)C1CCCC(O)C1 (stereo not drawn) [compound 148, 3-hydroxy-N-(3-(trifluoromethyl)-10H-phenothiazin-1-yl)cyclohexane-carboxamide] | > 100 µg/mL | < 4.00 | 26 µg/mL (≈ 63.7 µM) |  |  | 
NCC1CCCC(C(=O)Nc2cc(C(F)(F)F)cc3c2Nc2ccccc2S3)C1 (stereo not drawn) [compound 149, 3-(aminomethyl)-N-(3-(trifluoromethyl)-10H-phenothiazin-1-yl)cyclohexane-carboxamide] | 54 µg/mL (≈ 128 µM) | 4.82 | 13 µg/mL (≈ 30.8 µM) |  |  | 
CN(C)CCCN1c2ccccc2Sc2cc(-c3cc4cc(O)ccc4[nH]3)ccc21 [compound 152, 2-(10-(3-(dimethylamino)propyl)-10H-phenothiazin-3-yl)-1H-indol-5-ol] | > 100 µg/mL | < 4.00 | 13 µg/mL (≈ 31.3 µM) |  |  | 
COc1cc(-c2ccc3c(c2)Sc2ccccc2N3CCCN(C)C)ccn1 [compound 153, 3-(3-(2-methoxypyridin-4-yl)-10H-phenothiazin-10-yl)-N,N-dimethylpropan-1-amine] | > 100 µg/mL | < 4.00 | 25 µg/mL (≈ 63.9 µM) |  |  | 
NCCN1CCC(C(=O)Nc2cc(C(F)(F)F)cc3c2Nc2ccccc2S3)CC1 [compound 155, trifluoroacetate] |  |  |  | 35 µg/mL | 4.28 | 35 µg/mL
FC(F)(F)c1cc(NC[C@@H]2COCCN2)c2c(c1)Sc1ccccc1N2 [compound 159, (R)-N-(morpholin-3-ylmethyl)-3-(trifluoromethyl)-10H-phenothiazin-1-amine] | > 100 µg/mL | < 4.00 | 12 µg/mL (≈ 31.5 µM) |  |  | 
NC1CCCC(C(=O)Nc2cc(Cl)cc3c2Nc2ccccc2S3)C1 (stereo not drawn) [compound 161, 3-amino-N-(3-chloro-10H-phenothiazin-1-yl)cyclohexane-carboxamide] | 96 µg/mL (≈ 257 µM) | 4.17 | 24 µg/mL (≈ 64.2 µM) |  |  | 
NCCCNC1CCCC(C(=O)Nc2cc(C(F)(F)F)cc3c2Nc2ccccc2S3)C1 (stereo not drawn) [compound 162, 3-((3-aminopropyl)amino)-N-(3-(trifluoromethyl)-10H-phenothiazin-1-yl)cyclohexane-carboxamide] | > 100 µg/mL | 4.30 | 30 µg/mL (≈ 64.6 µM) |  |  | 
FC(F)(F)c1cc(NCC2CCNCC2)c2c(c1)Sc1ccccc1N2 [compound 173, N-(piperidin-4-ylmethyl)-3-(trifluoromethyl)-10H-phenothiazin-1-amine] | > 100 µg/mL | 4.23 | 24 µg/mL (≈ 63.2 µM) |  |  | 

The remaining compounds from weak to strong by MIC [1, 4], led by results:

MIC [1, 4] | pIC50 [2] | MIC [3, 5] | SMILES | MIC ([1]; ATCC25922, read-out: E. coli MIC) | pIC50 ([2]; trifluoroacetate) | MIC ([3]; ATCC25923, read-out: S. aureus ("Clinical") MIC, Table 15)
52 µg/mL (≈ 128 µM) | 4.28 | 3 µg/mL (≈ 7.36 µM) | NCC1CCC(CNc2cc(C(F)(F)F)cc3c2Nc2ccccc2S3)CC1 (stereo not drawn) [compound 158, N-((4-(aminomethyl)cyclohexyl)methyl)-3-(trifluoromethyl)-10H-phenothiazin-1-amine] |  |  | 
52 µg/mL (≈ 128 µM) | 4.22 | 26 µg/mL (≈ 64.1 µM) | NC[C@H]1CC[C@H](C(=O)Nc2cc(C(F)(F)F)cc3c2Nc2ccccc2O3)CC1 [compound 160, (1r,4r)-4-(aminomethyl)-N-(3-(trifluoromethyl)-10H-phenoxazin-1-yl)cyclohexane-carboxamide] |  |  | 
45 µg/mL (≈ 129 µM) | 4.44 | 11 µg/mL (≈ 31.5 µM) | FC(F)(F)c1cc(NC2CCNCC2)c2c(c1)Oc1ccccc1N2 [compound 169, N-(piperidin-4-yl)-3-(trifluoromethyl)-10H-phenoxazin-1-amine] |  |  | 
27 µg/mL (≈ 64.1 µM) | < 4.00 | 13 µg/mL (≈ 30.8 µM) | NC1CCCC(CC(=O)Nc2cc(C(F)(F)F)cc3c2Nc2ccccc2S3)C1 (stereo not drawn) [compound 167, 2-(3-aminocyclohexyl)-N-(3-(trifluoromethyl)-10H-phenothiazin-1-yl)acetamide] |  |  | 
25 µg/mL (≈ 63.9 µM) | < 4.00 | 13 µg/mL (≈ 33.2 µM) | NC1CCCC(C(=O)Nc2cc(C(F)(F)F)cc3c2Nc2ccccc2O3)C1 (stereo not drawn) [compound 156, 3-amino-N-(3-(trifluoromethyl)-10H-phenoxazin-1-yl)cyclohexane-carboxamide] |  |  | 
23 µg/mL (≈ 62.9 µM) | 4.57 | 6 µg/mL (≈ 16.4 µM) | FC(F)(F)c1cc(NC2CCCNC2)c2c(c1)Sc1ccccc1N2 (stereo not drawn) [compound 172, N-(piperidin-3-yl)-3-(trifluoromethyl)-10H-phenothiazin-1-amine] |  |  | 
14 µg/mL (≈ 31.1 µM) | 4.14 | 14 µg/mL (≈ 31.1 µM) | NCCNC1CCCC(C(=O)Nc2cc(C(F)(F)F)cc3c2Nc2ccccc2S3)C1 (stereo not drawn) [compound 163, 3-((2-aminoethyl)amino)-N-(3-(trifluoromethyl)-10H-phenothiazin-1-yl)cyclohexane-carboxamide] |  |  | 
13 µg/mL (≈ 33 µM) | 4.38 | 3 µg/mL (≈ 7.62 µM) | N[C@@H]1CCC[C@@H](CNc2cc(C(F)(F)F)cc3c2Nc2ccccc2S3)C1 [compound 171, N-(((1R,3R)-3-aminocyclohexyl)methyl)-3-(trifluoromethyl)-10H-phenothiazin-1-amine] |  |  | 
11 µg/mL (≈ 31.3 µM) | 4.30 | 3 µg/mL (≈ 8.54 µM) | FC(F)(F)c1cc(NC2CCNC2)c2c(c1)Sc1ccccc1N2 (stereo not drawn) [compound 174, N-(pyrrolidin-3-yl)-3-(trifluoromethyl)-10H-phenothiazin-1-amine] |  |  | 
7 µg/mL (≈ 16.6 µM) | 4.23 | 3 µg/mL (≈ 7.1 µM) | NC1CC(N)CC(C(=O)Nc2cc(C(F)(F)F)cc3c2Nc2ccccc2S3)C1 (stereo not drawn) [compound 170, 3,5-diamino-N-(3-(trifluoromethyl)-10H-phenothiazin-1-yl)cyclohexane-carboxamide] |  |  | 
